Reference: paper PMC11477218 (International Journal of Molecular Sciences, 2024)
Read-outs that look alike come from different tables or passages of the source.

Target: T1, 20S proteasome β5 subunit (Homo sapiens, UniProt P28074)
T1 construct: gene PSMB5; human erythrocyte 20S proteasome (constitutive); with other subunits of the 20S proteasome
T1 sequence (P28074 60-263): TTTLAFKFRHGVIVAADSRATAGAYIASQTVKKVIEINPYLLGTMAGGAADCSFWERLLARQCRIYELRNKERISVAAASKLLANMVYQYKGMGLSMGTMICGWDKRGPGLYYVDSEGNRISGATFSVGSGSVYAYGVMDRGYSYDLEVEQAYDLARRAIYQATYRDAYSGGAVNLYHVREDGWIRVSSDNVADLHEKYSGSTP
Experiment: fluorogenic Suc-LLVY-AMC chymotrypsin-like activity assay
Assay type: biochemical

`O=c1c(O)c(-c2ccc(O)c(O)c2)oc2cc(O)cc(O)c12` [quercetin] showed an IC50 of 2.96 ± 0.77 µM.
`COc1cc2ccn(C/C=C/C(=O)NCCC(C)C)c(=O)c2cc1OC` [AM12] was tested, and the IC50 (read-out: IC50) was 12.2 ± 1.8 µM.
